Calls of active or inactive are those of the source. No cut-off for these calls is given here.
Tests used:
[1] = system: Mus musculus; assay: Anti-inflammatory activity in Mus musculus Swiss albino (mouse) assessed as inhibition of carrageenan-induced edema at 100 mg/kg, po pretreated 60 min before carrageenan-challenge measured after 360 min; format: functional
[2] = system: Mus musculus; assay: Anti-inflammatory activity in Mus musculus Swiss albino (mouse) assessed as inhibition of carrageenan-induced edema at 100 mg/kg, po pretreated 60 min before carrageenan-challenge measured after 270 min; format: functional
[3] = system: Mus musculus; assay: Anti-inflammatory activity in Mus musculus Swiss albino (mouse) assessed as inhibition of carrageenan-induced edema at 100 mg/kg, po pretreated 60 min before carrageenan-challenge measured after 180 min; format: functional
[4] = system: Mus musculus; assay: Anti-inflammatory activity in Mus musculus Swiss albino (mouse) assessed as inhibition of carrageenan-induced edema at 100 mg/kg, po pretreated 60 min before carrageenan-challenge measured after 90 min; format: functional
[5] = system: Mus musculus; assay: Analgesic activity in Mus musculus Swiss albino (mouse) assessed as inhibition of p-benzoquinone-induced writhing at 100 mg/kg, po pretreated 60 min before p-benzoquinone challenge; format: functional
[6] = molecular target: T1, Polyunsaturated fatty acid 5-lipoxygenase (Homo sapiens) (UniProt P09917); assay: Inhibition of 5-LOX (unknown origin) at 10 uM
T1 sequence (whole entry): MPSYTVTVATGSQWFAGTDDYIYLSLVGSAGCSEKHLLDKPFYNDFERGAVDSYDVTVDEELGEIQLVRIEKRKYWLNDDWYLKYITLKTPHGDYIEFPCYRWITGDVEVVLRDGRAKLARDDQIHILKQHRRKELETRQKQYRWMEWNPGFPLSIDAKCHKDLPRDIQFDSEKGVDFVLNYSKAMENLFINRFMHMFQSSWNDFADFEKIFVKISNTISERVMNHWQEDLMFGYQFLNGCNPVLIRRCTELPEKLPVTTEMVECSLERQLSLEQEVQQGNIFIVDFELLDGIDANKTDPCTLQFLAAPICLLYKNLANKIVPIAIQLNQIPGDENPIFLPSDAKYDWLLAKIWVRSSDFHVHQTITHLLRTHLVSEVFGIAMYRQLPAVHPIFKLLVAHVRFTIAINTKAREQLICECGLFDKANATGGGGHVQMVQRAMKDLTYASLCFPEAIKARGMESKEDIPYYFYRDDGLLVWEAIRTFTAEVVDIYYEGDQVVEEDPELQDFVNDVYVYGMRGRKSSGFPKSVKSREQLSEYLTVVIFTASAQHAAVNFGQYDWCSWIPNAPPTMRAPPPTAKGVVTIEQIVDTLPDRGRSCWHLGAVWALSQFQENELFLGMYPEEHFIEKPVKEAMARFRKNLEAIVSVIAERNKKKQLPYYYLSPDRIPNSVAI

[7] = system: Mus musculus; assay: Gastrointestinal toxicity in Mus musculus Swiss albino (mouse) assessed as ratio of ulcer at 100 mg/kg, po measured after 2 hr; format: organism-based; parameters: dose 100 mg/kg, route oral; details: in vivo
[8] = molecular target: T2, Prostaglandin G/H synthase 2 (Homo sapiens) (UniProt P35354); details: Blood, at 10 µM;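 note: human whole blood COX-2 activity read out as PGE2 level measured by enzyme immunoassay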
T2 sequence (whole entry): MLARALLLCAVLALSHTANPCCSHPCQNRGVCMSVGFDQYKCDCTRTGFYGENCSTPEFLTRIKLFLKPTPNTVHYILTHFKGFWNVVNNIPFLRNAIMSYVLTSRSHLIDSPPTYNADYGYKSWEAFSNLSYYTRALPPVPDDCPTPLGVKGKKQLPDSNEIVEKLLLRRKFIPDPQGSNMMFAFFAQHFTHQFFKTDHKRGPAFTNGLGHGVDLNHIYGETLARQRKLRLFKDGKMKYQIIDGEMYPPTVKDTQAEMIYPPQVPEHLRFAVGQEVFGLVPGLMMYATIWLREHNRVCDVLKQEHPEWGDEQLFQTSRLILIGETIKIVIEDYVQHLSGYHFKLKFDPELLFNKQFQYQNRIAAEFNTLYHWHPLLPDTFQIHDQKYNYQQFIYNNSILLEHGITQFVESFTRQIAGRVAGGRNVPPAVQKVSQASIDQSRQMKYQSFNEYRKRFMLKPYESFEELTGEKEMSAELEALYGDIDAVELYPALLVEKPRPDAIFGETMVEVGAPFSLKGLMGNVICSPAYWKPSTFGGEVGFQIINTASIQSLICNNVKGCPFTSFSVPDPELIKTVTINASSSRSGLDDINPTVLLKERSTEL
Description: Inhibition of cyclooxygenase-2 in Homo sapiens (human) whole blood assessed as PGE2 level at 10 uM by EIA

[9] = molecular target: Prostaglandin G/H synthase 1 (Homo sapiens) (UniProt P23219); details: Blood, at 10 µM;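 note: human whole blood assay, COX-1 activity read out as TXB2 level by enzyme immunoassay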
Chain of Prostaglandin G/H synthase 1 (Homo sapiens) (P23219 whole entry): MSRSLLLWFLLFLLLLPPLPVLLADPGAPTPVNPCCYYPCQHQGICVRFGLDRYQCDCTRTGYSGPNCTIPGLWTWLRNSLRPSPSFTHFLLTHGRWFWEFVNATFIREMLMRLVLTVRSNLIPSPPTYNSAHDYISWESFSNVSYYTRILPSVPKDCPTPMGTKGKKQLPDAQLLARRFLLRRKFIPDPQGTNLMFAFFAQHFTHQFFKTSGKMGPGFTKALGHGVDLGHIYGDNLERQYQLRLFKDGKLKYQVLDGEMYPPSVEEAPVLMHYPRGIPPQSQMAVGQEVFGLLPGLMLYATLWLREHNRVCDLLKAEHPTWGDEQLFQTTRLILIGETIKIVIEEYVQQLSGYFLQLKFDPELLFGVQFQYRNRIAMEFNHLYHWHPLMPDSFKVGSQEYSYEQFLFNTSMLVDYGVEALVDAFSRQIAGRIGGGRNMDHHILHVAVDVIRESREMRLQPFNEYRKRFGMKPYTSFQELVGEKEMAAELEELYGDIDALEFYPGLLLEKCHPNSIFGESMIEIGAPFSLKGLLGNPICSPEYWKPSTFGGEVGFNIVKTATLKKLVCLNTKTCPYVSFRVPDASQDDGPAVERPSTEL
Description: Inhibition of cyclooxygenase-1 in Homo sapiens (human) whole blood assessed as TXB2 level at 10 uM by EIA

Compound | inhibition [1] | inhibition [2] | inhibition [3] | inhibition [4] | inhibition [5] | inhibition [6] | Activity [7] | inhibition [8] | inhibition [9] | inhibition in vivo at 100 mg/kg [1] [%] | inhibition in vivo at 100 mg/kg [2] [%] | inhibition in vivo at 100 mg/kg [3] [%] | inhibition in vivo at 100 mg/kg [4] [%] | inhibition in vivo at 100 mg/kg [5] [%]
Cc1cccc(NC(=O)Cn2c(=O)sc3cc(C(=O)c4ccccc4)ccc32)n1 | inactive | inactive | inactive | inactive | inactive | 26% | Toxic | inactive | inactive | – | – | – | – | –
O=C(Cn1c(=O)sc2cc(C(=O)c3ccccc3Cl)ccc21)Nc1ccccc1 | – | – | – | – | – | 16% | Non-toxic | inactive | 3.42% | 10.5 | 10.9 | 11 | 5.3 | 20.6
CS(=O)(=O)c1ccc(-c2cc(Br)sc2-c2ccc(F)cc2)cc1 | – | – | – | – | – | – | – | – | 100% | – | – | – | – | –
O=C(Cn1c(=O)sc2cc(C(=O)c3ccccc3)ccc21)Nc1cccc(Cl)c1 | – | – | – | – | – | 46% | Non-toxic | inactive | inactive | 8 | 10.8 | 10.7 | 5.6 | 23.1
O=C(Cn1c(=O)sc2cc(C(=O)c3ccccc3)ccc21)Nc1ccc(Cl)cc1 | – | – | – | – | – | inactive | Non-toxic | 23.1% | inactive | 16.5 | 22.9 | 15.2 | 6.6 | 26.5
Cc1cccc(NC(=O)Cn2c(=O)sc3cc(C(=O)c4ccccc4F)ccc32)n1 | – | – | – | – | – | 20% | Non-toxic | 12.6% | 28% | 2.3 | 1.2 | 3.7 | 1.7 | 22.2
CC(=O)Oc1ccccc1C(=O)O [ASPIRIN] | – | – | – | – | – | – | Toxic | – | – | – | – | – | – | 50.1
O=C(Cn1c(=O)sc2cc(C(=O)c3ccccc3F)ccc21)Nc1ccccc1 | – | – | – | – | – | 24% | Non-toxic | inactive | 5.61% | 19.5 | 22.6 | 23.5 | 11.3 | 26.8
Cc1ccnc(NC(=O)Cn2c(=O)sc3cc(C(=O)c4ccccc4F)ccc32)c1 | – | – | – | – | – | 19% | Toxic | inactive | 1.98% | 4.6 | 6.1 | 6.8 | 2.8 | 27
Cc1ccnc(NC(=O)Cn2c(=O)sc3cc(C(=O)c4ccccc4Cl)ccc32)c1 | – | – | – | – | – | 11% | Toxic | inactive | 10.1% | 3.7 | 5.1 | 3.5 | 3.8 | 8.1

— ChEMBL document CHEMBL3045772, “Amide derivatives of [6-acyl-2-benzothiazolinon-3-yl] acetic acids as potential analgesic and anti-inflammatory compounds” (Med Chem Res, 2010)
